How the values were obtained:
TAC-stressed hearts = test: TAC pressure-overload cardiac hypertrophy in mice treated with thiostrepton; type: in vivo
Protocol: (§1) FoxM1 is a transcription factor that regulates the expression of genes associated with pathological hypertrophy. […] However, FoxM1 mRNA increased by 8.4-fold in TAC-stressed hearts (FIG. 6A), and the protein was present in the nuclei of both myocytes and endothelial cells of stressed hearts (FIGS. 6B and 6C). Because of the stress-induced endothelial expression of FoxM1, it was evaluated if FoxM1 cooperated with Brg1 to regulate Ace and Ace2 expression. The necessity of FoxM1 activation for cardiac hypertrophy by using FoxM1 inhibitor thiostrepton to inhibit FoxM1 in TAC-stressed hearts was tested. Within 4 weeks after TAC, the control mice injected with DMSO developed severe cardiac hypertrophy with increased ventricle-body weight ratio, interstitial fibrosis, and cardiac dysfunction with reduced left ventricular fractional shortening (FS) (FIGS. 6D, 6E, and 6G). […] Collectively, these findings indicate that FoxM1 activation by stress is necessary for cardiac myopathy and for stress-induced changes of Ace and Ace2.

Ace and Ace2 = test: Western blot analysis of Ace and Ace2 in heart ventricles of thiostrepton treated mice after TAC; type: in vivo; settings: 2 weeks after TAC
Protocol: as §1

Ace and Ace2 promoter = test: Luciferase reporter assays of Ace and Ace2 proximal promoters in mouse cardiac endothelial cells; type: cell-based; settings: MCEC cells
Protocol: The transcriptional activity of Brg1 on the Ace and Ace2 promoters was also tested. 3.1 kb of Ace upstream promoter (−2983 bp to +174 bp) and 7.8 Kb of Ace2 upstream promoter (−7063 bp to +786 bp) were cloned into the episomal reporter pREP4 that undergoes chromatinization in mammalian cells. The reporter constructs and Brg1-expressing plasmid were transfected into mouse cardiac endothelial cells. In these cells, Brg1 caused a 1.7-fold increase in Ace promoter activity and 59% reduction in Ace2 promoter activity (FIG. 5P). Combined with the ChIP results, these reporter studies indicate that Brg1 activates Ace promoter and represses Ace2 promoter, providing a mechanism for the antithetical changes of Ace and Ace2 in stressed hearts.
Inhibition of FoxM1 by thiostrepton eliminated the ability of Brg to activate Ace and repress Ace2 promoter (FIGS. 10F and 10G).

C=C(NC(=O)C(=C)NC(=O)c1csc(C2=N[C@@H]3c4csc(n4)[C@H]4NC(=O)c5csc(n5)[C@H]([C@](C)(O)[C@@H](C)O)NC(=O)[C@H]5CSC(=N5)/C(=C/C)NC(=O)[C@H]([C@@H](C)O)NC(=O)c5csc(n5)[C@]3(CC2)NC(=O)[C@H](C)NC(=O)C(=C)NC(=O)[C@H](C)NC(=O)[C@H]([C@@H](C)CC)N[C@@H]2C=Cc3c([C@H](C)O)cc(nc3[C@H]2O)C(=O)O[C@@H]4C)n1)C(N)=O [thiostrepton]
improvement of left ventricular fractional shortening (FS) (TAC-stressed hearts; 4 weeks after TAC, echocardiography, vs DMSO control): 28% | reduction of hypertrophy (ventricle-body weight ratio) (TAC-stressed hearts; 4 weeks after TAC, vs DMSO control): ~50% | cardiac dysfunction (TAC-stressed hearts; within 4 weeks after TAC): lesser degree of cardiac dysfunction | interstitial fibrosis (TAC-stressed hearts; within 4 weeks after TAC, trichrome staining): mild interstitial fibrosis | cardiac hypertrophy (TAC-stressed hearts; within 4 weeks after TAC, vs DMSO control): mild cardiac hypertrophy | TAC-induced changes of Ace and Ace2 (Ace and Ace2; Western blot of heart ventricles): abolished | reduction of Ace/Ace2 ratio in stressed hearts (Ace and Ace2; Western blot quantitation): 6.53 fold | ability of Brg to activate Ace and repress Ace2 promoter (Ace and Ace2 promoter): eliminated

From patent US20200164025A1, “AN[…] E[…] AND ACE2 BY BRG1-FOXM1 COMPLEX UNDERLIES PA[…] HYPERTROPHY” (INDIANA UNIVERSITY RESEARCH AND TECHNOLOGY CORPORATION, priority 2014, published 2020)
